Source: patent US6319678A, “Process for glucuronidation screening” (PanVera Corporation, priority 1999, dated 2001)

Tests used:
[1] = background; cited from earlier work
UGT1A6 = assay: Accumulation of naphthyl glucuronide in UGT1A6 assay using [14C] UDPGA; format: in vitro ADME, human; conditions: parallel experiment using [14C] UDPGA, data not shown
Description: Two approaches were taken to test the feasibility of coupling the UGT-dependent production of glucuronides to inhibition of fluorescent product formation by b-D-glucuronidase. The first involved extracting the UGT reaction products and adding them to the b-D-glucuronidase fluorescence assay reagents; the second involved adding the b-D-glucuronidase reaction components directly to the quenched UGT reaction. In the first approach, α-naphthyl b-D-glucuronide was generated in an incubation with recombinant human UGT1A6 and α-naphthol. Following extraction, 4-methylumbelliferyl-b-D-glucuronide assay reagents were added to the extracted, dried reaction residues. […] Inhibition of 4-methylumbelliferyl-b-D-glucuronide cleavage was dependent on the incubation time of the UGT1A6 assay, presumably reflecting increased .quadrature.-naphthyl glucuronide accumulation.

[2] = molecular target: bacterial b-glucuronidase (Escherichia coli, UniProt P05804); assay: Inhibition of b-glucuronidase cleavage of 4-methylumbelliferyl-b-D-glucuronide by competitor b-D-glucuronides (FIG. 2); format: biochemical; conditions: 20 μM 4-methylumbelliferyl-b-D-glucuronide, result in words
Sequence of bacterial b-glucuronidase (P05804 whole entry): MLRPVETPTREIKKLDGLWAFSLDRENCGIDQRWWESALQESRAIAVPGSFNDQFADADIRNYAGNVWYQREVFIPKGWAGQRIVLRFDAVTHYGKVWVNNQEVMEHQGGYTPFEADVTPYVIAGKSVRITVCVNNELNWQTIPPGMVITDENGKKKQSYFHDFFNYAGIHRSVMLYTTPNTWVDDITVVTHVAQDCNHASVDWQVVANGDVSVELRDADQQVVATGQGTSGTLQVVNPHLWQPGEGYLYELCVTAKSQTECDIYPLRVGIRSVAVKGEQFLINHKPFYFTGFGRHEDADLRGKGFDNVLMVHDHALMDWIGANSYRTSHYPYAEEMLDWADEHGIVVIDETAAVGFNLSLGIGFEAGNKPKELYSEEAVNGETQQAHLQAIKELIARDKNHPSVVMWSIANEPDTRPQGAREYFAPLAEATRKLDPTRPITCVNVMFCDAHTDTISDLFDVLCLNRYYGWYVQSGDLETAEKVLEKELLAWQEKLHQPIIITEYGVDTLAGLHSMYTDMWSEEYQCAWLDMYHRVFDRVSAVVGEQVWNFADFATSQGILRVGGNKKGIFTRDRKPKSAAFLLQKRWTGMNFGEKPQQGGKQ
Description: FIG. 1 Kinetic measurements of 4-methylumbelliferylb-D-glucuronide cleavage by b-gluuronidase. In part A, 100 μl assays were performed in triplicate using 100 mM Tris-HCl buffer, pH 7.4, containing 10 mM MgCl2, 0.1 μg/ml b-gluuronidase and 5 (.box-solid.), 20 (.tangle-solidup.), and 100 (.circle-solid.) μM, 4-methylumbelliferyl-b-D-glucuronide. Reactions were started by the addition of enzyme, incubated for indicated times at ambient temperature and then quenched with 100 μl of 0.1 M Na2 CO3, pH 9.5, containing 0.1% CHAPS. Fluorescence intensity was measured with a Beacon fluorescent polarization instrument (PanVera Corporation, Madison, Wis.) in intensity mode, using excitation and emission filters of 360 nm and 440 nm, respectively, and slit widths set at 10 nm. Part B, assays were performed in duplicate for 20 min as above with the indicated amount of 4-methylumbelliferyl-b-D-glucuronide. 4-Methyumbelliferone concentration was determined from a calibration curve.
FIG. 2 Inhibition curves. Assays were performed as described in the legend to FIG. 1B with 20 .quadrature.M 4-methylumbelliferyl-b-D-glucuronide and the indicated amount of competitor b-D-glucuronide. Fluorescence intensity due to 4-methylumbelliferyl-b-D-glucuronide cleavage, in the absence of a competitor was arbitrarily assigned as 100%. Competitors, α-napthyl b-D-glucuronide (.box-solid.), .quadrature.-trifluoromethylumbelliferyl-b-D-glucuronide (o), .quadrature.-estradiol 3-.quadrature.b-D-glucuronide) (.tangle-solidup.), p-acetominophenyl b-D-glucuronide (.circle-solid.), 5.quadrature.-androstane-3α, 17α-diol-11-one-17-carboxylic acid-3-(b-D-glucuronide) (.tangle-soliddn.) and UDPGA (.E-backward.) were dissolved in 100 mM Tris-HCl, containing 10 mM MgCl2, pH 7.5. Tetrahydrocortisone 3-b-D-glucuronide (.diamond-solid.) was prepared in DMSO. The DMSO in reaction mixtures was 0.1% or less.
Assay Principle: Cleavage of 4-methylumbelliferyl b-D-glucuronide by bacterial b-glucuronidase generates the highly fluorescent compound, 4-methylumbelliferone. Diverse b-D-glucuronides act as competitors of b-glucuronidase, thus providing the basis of a coupled assay method for detection of glucuronide production by recombinant UGT isozymes. […] The 4-methylumbelliferyl b-D-glucuronide cleavage assay can easily be adapted to high throughput formats to detect the presence of b-D glucuronides generated using recombinant glycosyl transferase preparations.
Methods are included in text and figure legends. b-D-glucuronidase (Part G-7396), α-napthyl b-D-glucuronide, b-trifluoromethylumbelliferyl b-D-glucuronide, b-estradiol 3-(b-D-glucuronide), p-acetominophenyl b-D-glucuronide, 5 .quadrature.-androstane-3α, 17α-diol-11-one-17-carboxilic acid-3-(b-D-glucuronide), UDPGA and 4-methylumbelliferone b-D-glucuronide were obtained from Sigma, St. Louis Mo. Tetrahydrocortisone 3-b-D-glucuronide was obtained from Molecular Probes, Eugene, Oreg. Recombinant control and UGT1A6 membrane preparations were generated at PanVera Corporation and are commercially available from PanVera, Madison Wis. All other reagents were analytical grade or better and purchased from a variety of commercial sources.
In order to show the feasibility of developing a high throughput inhibition assay, we examined the potential of a variety of structurally dissimilar commercially available b-D-glucuronides to act as inhibitors for the cleavage of 4-methylumbelliferyl-b-D-glucuronide. […]

recombinant human UGT1A6 = molecular target: T1, recombinant human UGT1A6 (Homo sapiens, UniProt P19224); assay: Coupled assay: extracted residues of UGT1A6 / α-naphthol incubation added to b-glucuronidase fluorescence assay (FIG. 3A); format: biochemical
T1 sequence (P19224 27-532): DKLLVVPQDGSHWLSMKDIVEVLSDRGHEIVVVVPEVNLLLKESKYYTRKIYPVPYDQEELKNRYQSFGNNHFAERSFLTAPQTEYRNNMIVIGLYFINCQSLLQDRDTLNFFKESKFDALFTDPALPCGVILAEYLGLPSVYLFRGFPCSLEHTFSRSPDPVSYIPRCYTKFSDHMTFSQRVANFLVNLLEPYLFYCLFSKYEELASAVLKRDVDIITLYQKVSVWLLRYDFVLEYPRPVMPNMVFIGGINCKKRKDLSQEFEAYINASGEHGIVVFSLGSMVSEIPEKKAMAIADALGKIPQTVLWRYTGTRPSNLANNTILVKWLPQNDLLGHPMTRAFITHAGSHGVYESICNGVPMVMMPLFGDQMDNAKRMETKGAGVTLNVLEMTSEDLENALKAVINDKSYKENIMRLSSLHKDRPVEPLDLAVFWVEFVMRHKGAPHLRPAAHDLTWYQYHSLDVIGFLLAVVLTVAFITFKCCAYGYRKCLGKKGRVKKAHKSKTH
From the text: All other reagents were analytical grade or better and purchased from a variety of commercial sources.

[3] = background; cited from earlier work; remark: listed apart in the source
UGT1A1 = conditions: as in patients with Gilbert's syndrome; background; cited from earlier work

## CN1CC[C@]23c4c5ccc(O)c4O[C@H]2[C@@H](O[C@@H]2O[C@H](C(=O)O)[C@@H](O)[C@H](O)[C@H]2O)C=C[C@H]3[C@H]1C5 [6-glucuronide of morphine]
[1]
  analgesic potency relative to the parent compound morphine: more potent analgesic than the parent compound

## O=C(O)[C@H]1O[C@@H](Oc2cccc3ccccc23)[C@H](O)[C@@H](O)[C@@H]1O [α-naphthyl b-D-glucuronide]
UGT1A6
  accumulation of naphthyl glucuronide in the UGT1A6 assay: independently verified
[2]
  inhibition of 4-methylumbelliferyl-b-D-glucuronide cleavage (production of 4-methylumbelliferone) by b-glucuronidase: weakest
[2]; listed as α-naphthol b-D-glucuronide
  inhibition of 4-methylumbelliferyl-b-D-glucuronide cleavage (production of 4-methylumbelliferone) by b-glucuronidase: weak competitive inhibitor
Recombinant human UGT1A6; FIG. 3A, 0.6 mg/ml UGT1A6, 2 mM UDPGA, 0.6 mM α-naphthol, 37° C, ethyl acetate extraction, vs control microsomes
  inhibition of 4-methylumbelliferyl-b-D-glucuronide cleavage by extracted residues of UGT1A6 assay: inhibited 4-methylumbelliferyl-b-D-glucuronide cleavage

## CN1CC[C@]23c4c5ccc(O[C@@H]6O[C@H](C(=O)O)[C@@H](O)[C@H](O)[C@H]6O)c4O[C@H]2[C@@H](O)C=C[C@H]3[C@H]1C5 [3-glucuronide]
[3]
  activity towards morphine: morphine antagonist

## Oc1cccc2ccccc12 [α-naphthol]
Recombinant human UGT1A6
  interference of aglycone with the 4-methylumbelliferyl-b-D-glucuronide cleavage assay: does not interfere non-specifically

## O=C(O)[C@H]1O[C@H](OP(=O)(O)OP(=O)(O)OC[C@H]2O[C@@H](n3ccc(=O)[nH]c3=O)[C@H](O)[C@@H]2O)[C@H](O)[C@@H](O)[C@@H]1O [Uridine 5'-diphosphoglucuronic acid]
[2]
  inhibition of 4-methylumbelliferyl-b-D-glucuronide cleavage (production of 4-methylumbelliferone) by b-glucuronidase: not an effective competitor over the range tested

## C[C@]12CC[C@@H]3c4ccc(O[C@@H]5O[C@H](C(=O)O)[C@@H](O)[C@H](O)[C@H]5O)cc4CC[C@H]3[C@@H]1CC[C@@H]2O [b-estradiol-3-(b-D-glucuronide), b-estradiol 3-(b-D-glucuronide)]
[2]
  inhibition of 4-methylumbelliferyl-b-D-glucuronide cleavage (production of 4-methylumbelliferone) by b-glucuronidase: strongest
[2]; listed as estradiol b-D-glucuronide
  inhibition of 4-methylumbelliferyl-b-D-glucuronide cleavage (production of 4-methylumbelliferone) by b-glucuronidase: More potent inhibitors

## CCc1c2c(nc3ccc(OC(=O)N4CCC(N5CCCCC5)CC4)cc13)-c1cc3c(c(=O)n1C2)COC(=O)[C@]3(O)CC [Irinotecan]
UGT1A1
  toxicity associated with low expression of UGT1A1: associated with the toxicity
